From article PMC12797170, “Potent Competitive Inhibitors of Ecto-5′-nucleotidase (CD73) based on 6‑(Het)aryl-7-deazapurine Ribonucleoside 5′‑O‑Bisphosphonates” (ACS Pharmacology & Translational Science, 2025)
pIC50: −log10 of the molar value. ≈ marks a conversion by molar mass, not a printed value. Where two headings read alike, the source gives them in different places.

Columns and labels:
[1] = In vivo pharmacokinetic study, intravenous; parameters: species or system male CD-1 mice; conditions: for half-life: male, footnote: t1/2 stability in plasma, text: half-life in mouse PK
Outline: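 Single intravenous dose in male CD-1 mice (n=3, 9 weeks, 29.2–33.7 g). Plasma levels measured by LC-MS/MS at 5, 15, 30, 60, 120, 240 and 480 min.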

[2] = Plasma protein binding, mouse plasma; assay type: in vitro ADME
[3] = Plasma stability assay, mouse plasma
CCRF-CEM = assay: In vitro cytotoxic activity; assay type: cell-based; conditions: Homo sapiens
Method: (§1) All the compounds were also tested for their in vitro cytotoxic activity on a small panel of four cancer cell lines (CCRF-CEM, HepG2, HeLa S3, HL-60) and nonmalignant human dermal fibroblasts (NHDF).

[4] = test system: nonmalignant human dermal fibroblasts (NHDF); assay: In vitro cytotoxic activity; assay type: cell-based
Method: as §1

HeLa S3 = assay: In vitro cytotoxic activity; assay type: cell-based; conditions: Homo sapiens
Method: as §1

HepG2 = assay: In vitro cytotoxic activity; assay type: cell-based; conditions: Homo sapiens
Method: as §1

HL-60 = assay: In vitro cytotoxic activity; assay type: cell-based; conditions: Homo sapiens
Method: as §1

[5] = Kinetic solubility in PBS; assay type: physicochemical; conditions: phosphate-buffered saline, pH 7.4, aqueous buffer, kinetic from dmso stock
Outline: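 Echo-MS quantitation with calibration from 0.05 to 4 μM, after 1:99 dilution of filtrate into 50% acetonitrile. Filtrate came from a 100 μM PBS (pH 7.4) solution equilibrated 2 h at room temperature with shaking, in duplicate.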

[6] = target: T1, recombinant human CD73 (hCD73) (Homo sapiens, UniProt P21589); assay: CD73 activity assay on recombinant human CD73; assay type: biochemical; conditions: ΔGexp = RT ln Ki
T1 sequence (P21589 27-574): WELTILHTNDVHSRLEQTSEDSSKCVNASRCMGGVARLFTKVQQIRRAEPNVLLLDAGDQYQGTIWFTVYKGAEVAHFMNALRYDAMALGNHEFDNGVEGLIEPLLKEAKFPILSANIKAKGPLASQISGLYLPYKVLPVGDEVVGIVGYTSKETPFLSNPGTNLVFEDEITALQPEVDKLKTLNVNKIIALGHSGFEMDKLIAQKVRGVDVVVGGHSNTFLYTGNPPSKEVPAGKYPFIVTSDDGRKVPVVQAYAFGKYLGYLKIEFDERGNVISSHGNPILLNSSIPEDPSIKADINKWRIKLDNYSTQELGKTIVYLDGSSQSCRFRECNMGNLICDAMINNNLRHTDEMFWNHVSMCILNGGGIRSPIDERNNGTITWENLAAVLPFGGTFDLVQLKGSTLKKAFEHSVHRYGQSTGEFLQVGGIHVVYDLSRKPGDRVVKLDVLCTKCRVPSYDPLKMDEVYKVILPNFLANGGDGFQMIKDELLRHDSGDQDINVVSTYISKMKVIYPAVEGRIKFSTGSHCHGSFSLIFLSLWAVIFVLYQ

[7] = Plasma stability assay, human plasma
[8] = Plasma protein binding, equilibrium dialysis, human plasma; assay type: in vitro ADME; conditions: undiluted plasma
in vitro [9] = conditions: human, plasma
in vitro [10] = conditions: mouse, plasma
[11] = Microsomal stability assay, mouse liver microsomes; assay type: in vitro ADME; conditions: for Mics (m) comp remaining 60 min: 10 μM; for microsomal CLint at 10 µM: pooled liver microsomes, pH 7.4, read-out: Mics (m) CLint
[12] = Microsomal stability assay, human liver microsomes; assay type: in vitro ADME; conditions: for Mics (hu) comp remaining 60 min: 10 μM; for microsomal CLint at 10 µM: pooled liver microsomes, pH 7.4, read-out: Mics (hu) CLint
[13] = test system: MDA-MB-231 breast cancer cell line; assay: CellTox Green cytotoxicity assay; assay type: cell-based, human; conditions: 24 h
Method: MDA-MB-231 cells were harvested and counted using an automated cell counter. A total of 2,500 cells per well were seeded in 20 μL of phenol red-free complete RPMI medium into black 384-well plates. Five μL of CD73 inhibitors (final concentration: […]) or 5 μL PBS (negative control) were added to each well, except for wells designed as maximal signal (dead cell) controls. Plates were incubated for 24 h at 37 °C in a humidified CO2 incubator. To generate the maximum signal control, 5 μL of lysis buffer (CellTox Green Cytotoxicity Assay, Promega) was added to the dead cell controls, followed by a 30 min incubation at room temperature. Subsequently, 25 μL/well of CellTox Green Dye (diluted 1:500 in the assay buffer; Promega) was added. Plates were incubated in the dark on an orbital shaker at 500–700 rpm for 15 min. Fluorescence was measured using an Infinite M1000 plate reader (Tecan) with excitation at 485–500 nm and emission at 520–530 nm. Data were analyzed in GraphPad Prism 10.
Figure S2: Effect of CD73 inhibition on the viability of CD73-expressing breast cancer cell line. MDA-MB-231 cells were incubated with 10 µM CD73 inhibitors for 24 hours. Viability was assessed using the CellTox™ Green Cytotoxicity Assay.
± s.d. of technical triplicates (s.d., standard deviation).
(1 picture or pasted object on this page, not shown here)

[14] = AB680 literature row of Table 4; cited from earlier work
CD8+ T cells = assay: CD8+ T cell activation assay (CD25, IFN-γ, granzyme B); assay type: cell-based, human; conditions: 500 nM, separate CD8+ T-cell activation assays
Method: 6 CD73 inhibition partially reverses the immunosuppressive effect of adenosine generated from AMP in CD8 ^ + T cells. CD8^+ T cells were activated using CD3/CD28 activation beads in the presence of 2.5 μM EHNA, with or without 1 mM AMP and CD73 inhibitors (500 nM or 50 nM). A. CD25 expression. The percentage of CD8^+ T cells expressing the activation marker CD25 was measured by flow cytometry 60 h after activation. Data represent technical triplicates. B. Cytokine secretion. Granzyme B and IFN-γ levels in the culture supernatant were quantified by ELISA 60 h after activation. The data represent technical duplicates from two independently treated wells.
Peripheral blood was obtained from healthy donors at the Military University Hospital Prague, following informed consent. CD8+ T cells were enriched using the RosetteSep Human CD8+ T Cell Enrichment Cocktail ([…] Technologies) according to the manufacturer’s instructions and subsequently isolated by density gradient centrifugation using SepMate tubes ([…] Technologies). Residual red blood cells were lysed using a red blood cell lysis buffer (155 mM NH4Cl, 12 mM NaHCO3, 0.1 mM EDTA, pH = 7.1–7.4). The isolated CD8+ T cells were resuspended in complete RPMI and counted using an automated cell counter.
CD8+ T cells were seeded at 5 × 10^4 cells/well in 50 μL of complete RPMI in a flat-bottom 96-well plate. […] This was followed by the addition of 10 μL of a CD73 inhibitor at either 5 μM or 500 nM (experimental wells) or 10 μL of complete RPMI (control wells). Subsequently, 20 μL of 5 mM AMP was added to all wells except those serving as controls for maximal T cell activation. […]
Following incubation, supernatants were collected for quantification of IFN-γ and granzyme B using ELISA. […] Finally, stained cells were washed and analyzed using a BD LSRFortessa flow cytometer. Data were processed and analyzed using FlowJo software (version 10.8.1) and GraphPad Prism 10.
Secretion of IFN-γ and granzyme B was quantified using Human IFN-γ DuoSet ELISA and Human Granzyme B DuoSet ELISA (R&D Systems) according to the manufacturer’s instructions. […]

[15] = mouse, plasma, 1 mg/kg, male CD-1 mice, intravenous, single dose, read-out: Cl (obs), observed clearance
[16] = human plasma protein binding, read-out: PPB (hu) (converted)
[17] = CD-1, mouse, plasma, iv, 1 mg/kg, intravenous
[18] = mouse, plasma, Tables 2 and 4, mouse plasma, read-out: fup, fraction unbound in mouse plasma
[19] = mouse, plasma, mouse plasma protein binding, read-out: PPB (m) (converted)

Row | SMILES | clearance [1, 15] [mL/min/kg] | solubility at 2 h [5] [µM] | dG_exp, experimental binding free energy [6] | fraction unbound at 4 h, 100 µM [8, 16] | half-life [1, 17] [h] | half-life at 10 µM (in vitro [9]) [h] | fraction unbound at 4 h, 100 µM [2, 18] | fraction unbound at 4 h, 100 µM [2, 19] | half-life at 10 µM (in vitro [10]) [h] | Mics (m) comp remaining 60 min [11] [%] | microsomal CLint at 10 µM [11] [µL/min/mg] | Mics (hu) comp remaining 60 min [12] [%] | microsomal CLint at 10 µM [12] [µL/min/mg] | pIC50 (CCRF-CEM) | pIC50 [4] | pIC50 (HeLa S3) | pIC50 (HepG2) | pIC50 (HL-60) | further results
1 | O=P(O)(O)CP(=O)(O)OC[C@H]1O[C@@H](n2ccc3c(-c4cc5ccccc5c5ccccc45)ncnc32)[C@H](O)[C@@H]1O [4A.11] | 2 | 68 (≈ 39.8 µg/mL) | –13.1 kcal/mol | 0.013 | – | – | – | – | – | – | – | – | – | < 5.00 | < 5.00 | < 5.00 | < 5.00 | < 5.00 | clearance ([1]; in vivo PK in mice, unit not given): moderate clearance; half-life ([1]; CD-1, 1 mg/kg, intravenous): 1.65 h; fraction unbound at 4 h, 100 µM ([2]; mouse plasma protein binding, read-out: PPB (m) (converted)): 0.222; half-life at 10 µM [3]: > 2 h; half-life at 10 µM [7]: > 2 h; fraction unbound at 4 h, 100 µM ([8]; Tables 1 and 3, human plasma as printed in footnote, read-out: fup, fraction unbound in human plasma): 0.31
2 | O=P(O)(O)CP(=O)(O)OC[C@H]1O[C@@H](n2ccc3c(-c4cccc5ccccc45)nc(Cl)nc32)[C@H](O)[C@@H]1O [7B.6] | 0.73 | 92 (≈ 52.4 µg/mL) | –15.4 kcal/mol | 0.034 | 2.1 | > 2 | 0.27 | 0.274 | > 2 | 94 | 2 | 96 | 1 | < 5.00 | < 5.00 | < 5.00 | < 5.00 | 5.54 | in vitro cytotoxicity against MDA-MB-231 [13]: nontoxic
3 | O=P(O)(O)CP(=O)(O)OC[C@H]1O[C@@H](n2ccc3c(-c4cccc5ccccc45)nc(F)nc32)[C@H](O)[C@@H]1O [14D.6] | 1.3 | 89 (≈ 49.3 µg/mL) | –14.4 kcal/mol | 0.033 | 2.3 | > 2 | 0.42 | – | > 2 | 111 | < 1 | 100 | < 1 | < 5.00 | < 5.00 | < 5.00 | < 5.00 | < 5.00 | –

More lines, main results first:

Row | clearance [1, 15] [mL/min/kg] | solubility at 2 h [5] [µM] | dG_exp, experimental binding free energy [6] | fraction unbound at 4 h, 100 µM [8, 16] | half-life [1, 17] [h] | half-life at 10 µM (in vitro [9]) [h] | fraction unbound at 4 h, 100 µM [2, 18] | fraction unbound at 4 h, 100 µM [2, 19] | half-life at 10 µM (in vitro [10]) [h] | Mics (m) comp remaining 60 min [11] [%] | microsomal CLint at 10 µM [11] [µL/min/mg] | Mics (hu) comp remaining 60 min [12] [%] | microsomal CLint at 10 µM [12] [µL/min/mg] | SMILES | pIC50 (CCRF-CEM) | pIC50 [4] | pIC50 (HeLa S3) | pIC50 (HepG2) | pIC50 (HL-60) | further results
4 | 1.4 | 84 (≈ 46.8 µg/mL) | –15.1 kcal/mol | 0.023 | 2.25 | > 2 | 0.23 | 0.235 | > 2 | 116 | < 1 | 99 | < 1 | O=P(O)(O)CP(=O)(O)OC[C@H]1O[C@@H](n2ccc3c(-c4cccc5c4CCCC5)nc(F)nc32)[C@H](O)[C@@H]1O [14D.12] | < 5.00 | < 5.00 | < 5.00 | < 5.00 | < 5.00 | –
5 | 7.4 | 86 (≈ 46.4 µg/mL) | –14.7 kcal/mol | 0.026 | 0.25 | > 2 | 0.3 | 0.302 | > 2 | 103 | < 1 | 95 | 2 | Cc1nc(-c2cc3ccccc3o2)c2ccn([C@@H]3O[C@H](COP(=O)(O)CP(=O)(O)O)[C@@H](O)[C@H]3O)c2n1 [18E.8] | < 5.00 | < 5.00 | < 5.00 | < 5.00 | < 5.00 | –
6 | – | 76 (≈ 44.1 µg/mL) | – | ≤ 0.01 | – | > 2 | 0.1 | 0.098 | > 2 | 117 | < 2 | 118 | < 2 | C[C@H](Nc1cc(Cl)nc2c1cnn2[C@@H]1O[C@H](COP(=O)(O)CP(=O)(O)O)[C@@H](O)[C@H]1O)c1ccccc1F [AB680, quemliclustat, reference compound] | – | – | – | – | – | fup, fraction unbound in mouse plasma [14]: 0.89; median increase in CD25 expression (CD8+ T cells): 41%
